Results on two molecules are retold here after patent publication US20220323479A1, “COMPOSITIONS AND METHODS USING ADENOSYLCOBALAMIN” (SOCIETE DES PRODUITS NESTLE S.A., priority 2019, published 2022).

The subject of assay [1] is oxidative phosphorylation genes in skeletal muscle. Nature of the assay: Gene-set enrichment and network analysis of skeletal muscle (tibialis anterior) RNA of treated old rats. The class given is in vivo, Male Wistar rats. To be noted: 1 mg/kg s.c. 3 times a week, 5 months; for network analysis of regulated genes (protein-protein interactions): interaction score >0.9. The protocol:
(§1) Male Wistar rats aged 3 months or 19 months were treated with adenosylcobalamin (Adenosyl-B12) or methylcobalamin (Methyl-B12) at a dose of 1 mg/kg 3 times a week during 5 months by subcutaneous injection. Control animals were injected with equivalent volumes of saline. After 5 months treatment, adult rats were defined as 8 months old rats and old (aged) animals were defined as 24 old rodents.
Total RNA was extracted from tibialis anterior using the Agencourt RNAdvance Tissue Kit. For Gene-set enrichment analysis and Network analysis, RNA quantity was measured with Ribogreen and RNA quality was checked using the Standard Sensitivity RNA Analysis Kit on a Fragment Analyzer. All cRNA targets were synthesized using the IVT plus kit and fragmented according to the Affymetrix protocol, based on the Eberwine T7 procedure. Briefly, 100 ng of total RNA were used to produce double-stranded cDNA, followed by in vitro transcription, and cRNA labeling with biotin. Gene-set enrichment analysis (GSEA) of skeletal muscle describe the significant pathway differentially expressed (FIG. 5A). For Network analysis (FIG. 5B), nodes with an interaction score >0.9 are represented in different gray levels and aggregated by biological function.

Another assay relates to aged rats. Nature of the assay: Rotarod muscle performance / locomotor coordination. It counts as in vivo, Male Wistar rats. To be noted: 1 mg/kg s.c. 3 times a week, 5 months, vs control. The procedure:
as §1
To determine muscle performance (FIG. 6), locomotor coordination was measured using rotarod device. […] The time of activity on rotarod is measured in seconds. Each animal was recorded 3 times, with a resting period of at least 10 min between each trial.
A general note: In the rotarod test animals must keep their balance on a rotating rod.

The test system of assay [2] is human skeletal muscle myotubes. Nature of the assay: Luciferase-based ATP production evoked by epibatidine in myotubes. The note with it: vs control. It counts as cell-based. The procedure: (§2) To test the effect of adenosyl B12 and methyl B12 in human muscle myotubes, oxygen consumption rate and ATP production were measured in human myotubes, differentiated from primary adult muscle cells (HSMM). HSMM were purchased from Lonza (https://bioscience.lonza.com). HSMM were isolated from the upper arm or leg muscle tissue of normal donors and used after the second passage. HSMM were seeded in 96-well plates at a density of 12000 cells per well in SKM-M medium (ZenBio). Myotubes were differentiated from HSMM by growing the cells in DMEM/F-12 (Gibco) containing 2% horse serum, for 4 days. From the second growing day, the medium was not containing B12.
ATP measurements were carried out using myotubes infected with the adenovirus (from Sirion biotech) expressing luciferase. Luminescence was measured at the Cytation 3 cell imaging reader (Biotek). Relative changes of ATP were measured 48 h after infection in a luminometer, in standard medium containing 145 mM NaCl, 5 mM KCl, 1 mM MgCl2, 1 mM CaCl2), 10 mM glucose and 10 mM Hepes, pH 7.4. Luciferine (5 μM) was added to promote ATP-dependent reaction and basal luminescence was normalized as 100%. ATP production was stimulated in myotubes by addition of epibatidine.
(§3) For treatment, compounds were directly added to the cell culture or myotubes cultures 3 hours (acute treatment) or 3 days (chronic treatment) before measurements. Custom module analysis based on Excel (Microsoft) and GraphPad Prism 7.02 (GraphPad) software was used for quantification.

Assay [3] relates to human skeletal muscle myotubes. The experiment in a line: Oxygen consumption rate / ATP-synthase-dependent respiration (Seahorse XF96) in epibatidine-stimulated myotubes. To be noted: myotubes treated 3 h, stimulated with epibatidine 10 μM, oligomycin 2.5 μg/ml; vs control. It counts as cell-based. The procedure:
as §2
Oxygen consumption was measured using a XF96 instrument (Seahorse Biosciences, North Billerica, Mass., USA). After differentiation, respiration rates were determined every 7 min at 37° C. Myotubes were stimulated with 10 μM epibatidine. […] ATP synthase-dependent respiration was calculated as the difference in respiration rate before and after the addition of oligomycin.
as §3

Molecules are shown by their SMILES.

As for `C/C1=C2/[N-][C@H]([C@H](CC(N)=O)[C@@]2(C)CCC(=O)NC[C@@H](C)OP(=O)([O-])O[C@H]2[C@@H](O)[C@@H](n3cnc4cc(C)c(C)cc43)O[C@@H]2CO)[C@]2(C)N=C(/C(C)=C3N=C(/C=C4N=C1[C@@H](CCC(N)=O)C\4(C)C)[C@@H](CCC(N)=O)[C@]\3(C)CC(N)=O)[C@@H](CCC(N)=O)[C@]2(C)CC(N)=O.[CH2-][C@H]1O[C@@H](n2cnc3c(N)ncnc32)[C@H](O)[C@@H]1O.[Co]` [Adenosyl B12, adenosylcobalamin], the “gene expression signature of oxidative phosphorylation genes (enrichment plot analysis, GSEA)” value in assay [1] (Adenosyl-B12 vs Methyl-B12) is recorded as “specifically shows gene expression signature of oxidative phosphorylation genes in skeletal muscle”. Also, the “network analysis of regulated genes (protein-protein interactions)” value in assay [1] is “distinguished several clusters linked to mitochondrial respiratory chain complexes, oxidative phosphorylation and mitochondrial function”. Also, the “time of activity on rod” value in the assay on aged rats is “significantly increased”. The “epibatine-stimulated ATP production” value in assay [2] (acute treatment, 3 h) is “potentiates epibatine-stimulated ATP production”; in assay [2] (chronic treatment, 3 days) it was “potentiates epibatine-stimulated ATP production”. In addition, the “ATP-synthase-dependent component of the respiration” value in assay [3] is listed as “increases the ATP-synthase-dependent component of the respiration”.
As for `C/C1=C2/[N-][C@H]([C@H](CC(N)=O)[C@@]2(C)CCC(=O)NC[C@H](C)OP(=O)([O-])O[C@H]2[C@@H](O)[C@@H](n3cnc4cc(C)c(C)cc43)O[C@@H]2CO)[C@]2(C)N=C(/C(C)=C3N=C(/C=C4N=C1[C@@H](CCC(N)=O)C\4(C)C)[C@@H](CCC(N)=O)[C@]\3(C)CC(N)=O)[C@@H](CCC(N)=O)[C@]2(C)CC(N)=O.[CH3-].[Co+3]` [methyl B12, methylcobalamin, reference compound], the “network analysis of regulated genes (protein-protein interactions)” value in assay [1] is on record as “No network representation of oxidative phosphorylation genes is possible”. Moreover, in assay [2] (acute treatment, 3 h), the “epibatine-stimulated ATP production” value is “not methyl B12 potentiates epibatine-stimulated ATP production”. In addition, in assay [3], the “ATP-synthase-dependent component of the respiration” value is on record as “does not increase the ATP-synthase-dependent component of the respiration”.
